≈ marks a conversion by molar mass, not a printed value. Read-outs that look alike come from different tables or passages of the source.
How the values were obtained:
[1] = system: Streptococcus faecalis ATCC 8043; experiment: Minimum Inhibitory Concentration (MIC), in vitro; type: cell-based; conditions: Enterococcus faecalis
[2] = system: Staphylococcus epidermidis ATCC 12228; experiment: Minimum Inhibitory Concentration (MIC), in vitro; type: cell-based
[3] = system: Staphylococcus aureus ATCC 6538-P; experiment: Minimum Inhibitory Concentration (MIC), in vitro; type: cell-based
[4] = system: Micrococcus flavus ATCC 10240; experiment: Minimum Inhibitory Concentration (MIC), in vitro; type: cell-based
Sarcina lutea ATCC 9341 = experiment: Minimum Inhibitory Concentration (MIC), in vitro; type: cell-based; conditions: Micrococcus luteus
[5] = system: Bacillus cereus var. mycoides ATCC 11778; experiment: microbe, parasite or virus in culture; type: cell-based; conditions: ATCC11778, read-out: Minimum Inhibitory Concentration (MIC)
[6] = system: Bacillus subtilis ATCC 6633; experiment: Minimum Inhibitory Concentration (MIC), in vitro; type: cell-based
[7] = system: series of test microorganisms; experiment: in vitro test on a series of test microorganisms (MIC), overall; type: cell-based; conditions: test strains of Tables 1 and 2; in comparison with starting 11-aza-10-deoxo-10-dihydro erythromycin A
Procedure: The new compounds were tested in vitro on a series of test microorganisms.

bacteria = conditions: versus erythromycin A (U.S. Pat. No. 3,417,077; Rocz. Chem. 46, 2212-2217, 1972); cited from earlier work
[8] = ATCC8043, Streptococcus faecalis ATCC 8043, in vitro, read-out: Minimum Inhibitory Concentration (MIC)
[9] = ATCC12228, Staphylococcus epidermidis ATCC 12228, in vitro, read-out: Minimum Inhibitory Concentration (MIC)
[10] = ATCC6538, Staphylococcus aureus ATCC 6538-P, in vitro, read-out: Minimum Inhibitory Concentration (MIC)
[11] = ATCC10240, Micrococcus flavus ATCC 10240, in vitro, read-out: Minimum Inhibitory Concentration (MIC)
[12] = ATCC9341, Sarcina lutea ATCC 9341, in vitro, read-out: Minimum Inhibitory Concentration (MIC)
[13] = ATCC6633, Bacillus subtilis ATCC 6633, in vitro, read-out: Minimum Inhibitory Concentration (MIC)

SMILES	MIC [1, 8] [µg/mL]	MIC [2, 9] [µg/mL]	MIC [3, 10] [µg/mL]	MIC [4, 11] [µg/mL]	MIC (Sarcina lutea ATCC 9341; [12]) [µg/mL]	MIC [5] [µg/mL]	MIC [6, 13] [µg/mL]	antibacterial activity in words [7]	MIC ([1]; ATCC8043, read-out: Minimum Inhibitory Concentration (MIC)) [µg/mL]	MIC ([2]; Staphylococcus epidermidis, ATCC12228, read-out: Minimum Inhibitory Concentration (MIC)) [µg/mL]	MIC ([3]; Staphylococcus aureus, ATCC6538, read-out: Minimum Inhibitory Concentration (MIC)) [µg/mL]	MIC ([4]; Micrococcus flavus, ATCC10240, read-out: Minimum Inhibitory Concentration (MIC)) [µg/mL]	MIC (Sarcina lutea ATCC 9341; ATCC9341, read-out: Minimum Inhibitory Concentration (MIC)) [µg/mL]	MIC ([6]; Bacillus subtilis, ATCC6633, read-out: Minimum Inhibitory Concentration (MIC)) [µg/mL]	antibacterial activity compared with the starting antibiotic (bacteria)
CC[C@H]1OC(=O)[C@H](C)[C@@H](O[C@H]2C[C@@](C)(OC)[C@@H](O)[C@H](C)O2)[C@H](C)[C@@H](O[C@@H]2O[C@H](C)C[C@H](N(C)C)[C@H]2O)[C@](C)(O)C[C@@H](C)CN(C)[C@H](C)[C@H]2OC(=O)O[C@@]21C [Example 7, N-methyl-11-aza-10-deoxo-10-dihydro erythromycin A 13,14-cyclic carbonate]	0.05 (≈ 0.0645 µM)	0.5 (≈ 0.645 µM)	0.1 (≈ 0.129 µM)	0.1 (≈ 0.129 µM)	0.1 (≈ 0.129 µM)	0.1 (≈ 0.129 µM)	0.1 (≈ 0.129 µM)								
CCC(=O)O[C@H]1[C@H](O[C@@H]2[C@@H](C)[C@H](O[C@H]3C[C@@](C)(OC)[C@@H](OC(=O)CC)[C@H](C)O3)[C@@H](C)C(=O)O[C@H](CC)[C@@](C)(O)[C@H](O)[C@@H](C)N(C)C[C@H](C)C[C@@]2(C)O)O[C@H](C)C[C@@H]1N(C)C [Example 6, 2',4"-dipropionyl-N-methyl-11-aza-10-deoxo-10-dihydro erythromycin]	0.1 (≈ 0.116 µM)	0.1 (≈ 0.116 µM)	0.5 (≈ 0.581 µM)	0.5 (≈ 0.581 µM)	0.05 (≈ 0.0581 µM)	0.5 (≈ 0.581 µM)	0.1 (≈ 0.116 µM)								
CC[C@H]1OC(=O)[C@H](C)[C@@H](O[C@H]2C[C@@](C)(OC)[C@@H](O)[C@H](C)O2)[C@H](C)[C@@H](O[C@@H]2O[C@H](C)C[C@H](N(C)C)[C@H]2O)[C@](C)(O)C[C@@H](C)CN(C)[C@H](C)[C@@H](O)[C@]1(C)O [Example 1, N-methyl-11-aza-10-deoxo-10-dihydro erythromycin A]	0.01 (≈ 0.0134 µM)	0.5 (≈ 0.668 µM)	0.5 (≈ 0.668 µM)	0.01 (≈ 0.0134 µM)	0.05 (≈ 0.0668 µM)	0.5 (≈ 0.668 µM)	0.1 (≈ 0.134 µM)	superior effect on some tested microorganisms							
CC[C@H]1OC(=O)[C@H](C)[C@@H](O[C@H]2C[C@@](C)(OC)[C@@H](OC(C)=O)[C@H](C)O2)[C@H](C)[C@@H](O[C@@H]2O[C@H](C)C[C@H](N(C)C)[C@H]2OC(C)=O)[C@](C)(O)C[C@@H](C)CN(C)[C@H](C)[C@@H](O)[C@]1(C)O [Example 3, 2',4"-diacetyl-N-methyl-11-aza-10-deoxo-10-dihydro erythromycin A]	0.5 (≈ 0.6 µM)	2.5 (≈ 3 µM)	0.5 (≈ 0.6 µM)	0.1 (≈ 0.12 µM)	0.1 (≈ 0.12 µM)	0.5 (≈ 0.6 µM)	2.5 (≈ 3 µM)								
CC[C@H]1OC(=O)[C@H](C)[C@@H](O[C@H]2C[C@@](C)(OC)[C@@H](OC(C)=O)[C@H](C)O2)[C@H](C)[C@@H](O[C@@H]2O[C@H](C)C[C@H](N(C)C)[C@H]2OC(C)=O)[C@](C)(O)C[C@@H](C)CN(C)[C@H](C)[C@H]2OC(=O)O[C@@]21C [Example 9, 2',4"-diacetyl-N-methyl-11-aza-10-deoxo-10-dihydro erythromycin A 13,14-cyclic carbonate]	0.5 (≈ 0.582 µM)	2.5 (≈ 2.91 µM)	2.5 (≈ 2.91 µM)	1 (≈ 1.16 µM)	0.1 (≈ 0.116 µM)	2.5 (≈ 2.91 µM)	2.5 (≈ 2.91 µM)								
CC[C@H]1OC(=O)[C@H](C)[C@@H](O[C@H]2C[C@@](C)(OC)[C@@H](O)[C@H](C)O2)[C@H](C)[C@@H](O[C@@H]2O[C@H](C)C[C@H](N(C)C)[C@H]2OC(C)=O)[C@](C)(O)C[C@@H](C)CN(C)[C@H](C)[C@@H](O)[C@]1(C)O [Example 2, 2'-acetyl-N-methyl-11-aza-10-deoxo-10-dihydro erythromycin A]						0.5 (≈ 0.632 µM)			0.1 (≈ 0.126 µM)	0.5 (≈ 0.632 µM)	0.5 (≈ 0.632 µM)	0.5 (≈ 0.632 µM)	0.1 (≈ 0.126 µM)	0.1 (≈ 0.126 µM)	
CCC(=O)O[C@H]1[C@H](O[C@@H]2[C@@H](C)[C@H](O[C@H]3C[C@@](C)(OC)[C@@H](O)[C@H](C)O3)[C@@H](C)C(=O)O[C@H](CC)[C@@]3(C)OC(=O)O[C@@H]3[C@@H](C)N(C)C[C@H](C)C[C@@]2(C)O)O[C@H](C)C[C@@H]1N(C)C [Example 10, 2'-propionyl-N-methyl-11-aza-10-deoxo-10-dihydro erythromycin A 13,14-cyclic carbonate]	0.1 (≈ 0.12 µM)	0.5 (≈ 0.602 µM)	0.5 (≈ 0.602 µM)	0.5 (≈ 0.602 µM)	0.05 (≈ 0.0602 µM)	0.5 (≈ 0.602 µM)	1 (≈ 1.2 µM)								
CC[C@H]1OC(=O)[C@H](C)[C@@H](O[C@H]2C[C@@](C)(OC)[C@@H](O)[C@H](C)O2)[C@H](C)[C@@H](O[C@@H]2O[C@H](C)C[C@H](N(C)C)[C@H]2O)[C@](C)(O)C[C@@H](C)C(=O)[C@H](C)[C@H]2OC(=O)O[C@@]21C [11,12-cyclic carbonate of erythromycin A]															improved antibacterial activity
CC[C@H]1OC(=O)[C@H](C)[C@@H](O[C@H]2C[C@@](C)(OC)[C@@H](O)[C@H](C)O2)[C@H](C)[C@@H](O[C@@H]2O[C@H](C)C[C@H](N(C)C)[C@H]2O)[C@](C)(O)C[C@@H](C)CN[C@H](C)[C@@H](O)[C@]1(C)O [Standard, 11-aza-10-deoxo-10-dihydro erythromycin A, reference compound]	0.05 (≈ 0.068 µM)	0.5 (≈ 0.68 µM)	0.5 (≈ 0.68 µM)	0.05 (≈ 0.068 µM)	0.05 (≈ 0.068 µM)	0.5 (≈ 0.68 µM)	0.5 (≈ 0.68 µM)								
CC[C@H]1OC(=O)[C@H](C)[C@@H](O[C@H]2C[C@@](C)(OC)[C@@H](OC(C)=O)[C@H](C)O2)[C@H](C)[C@@H](O[C@@H]2O[C@H](C)C[C@H](N(C)C)[C@H]2OC(C)=O)[C@](C)(O)C[C@@H](C)CN(C)[C@H](C)[C@@H](OC(C)=O)[C@]1(C)O [Example 4, 2',4"-13-triacetyl-N-methyl-11-aza-10-deoxo-10-dihydro erythromycin A]								did not exhibit any satisfactory activity							
CCC(=O)O[C@H]1[C@H](O[C@@H]2[C@@H](C)[C@H](O[C@H]3C[C@@](C)(OC)[C@@H](OC(=O)CC)[C@H](C)O3)[C@@H](C)C(=O)O[C@H](CC)[C@@]3(C)OC(=O)O[C@@H]3[C@@H](C)N(C)C[C@H](C)C[C@@]2(C)O)O[C@H](C)C[C@@H]1N(C)C [Example 11, 2',4"-dipropionyl-N-methyl-11-aza-10-deoxo-10-dihydro erythromycin A 13,14-cyclic carbonate]	0.1 (≈ 0.113 µM)	2.5 (≈ 2.82 µM)	2.5 (≈ 2.82 µM)	0.5 (≈ 0.564 µM)	0.05 (≈ 0.0564 µM)	1 (≈ 1.13 µM)	1 (≈ 1.13 µM)								
CCC(=O)O[C@H]1[C@H](O[C@@H]2[C@@H](C)[C@H](O[C@H]3C[C@@](C)(OC)[C@@H](O)[C@H](C)O3)[C@@H](C)C(=O)O[C@H](CC)[C@@](C)(O)[C@H](O)[C@@H](C)N(C)C[C@H](C)C[C@@]2(C)O)O[C@H](C)C[C@@H]1N(C)C [Example 5, 2'-propionyl-N-methyl-11-aza-10-dihydro erythromycin A]	0.05 (≈ 0.0621 µM)	0.05 (≈ 0.0621 µM)	0.1 (≈ 0.124 µM)	0.05 (≈ 0.0621 µM)	0.05 (≈ 0.0621 µM)	0.5 (≈ 0.621 µM)	0.5 (≈ 0.621 µM)								
CC[C@H]1OC(=O)[C@H](C)[C@@H](O[C@H]2C[C@@](C)(OC)[C@@H](O)[C@H](C)O2)[C@H](C)[C@@H](O[C@@H]2O[C@H](C)C[C@H](N(C)C)[C@H]2OC(C)=O)[C@](C)(O)C[C@@H](C)CN(C)[C@H](C)[C@H]2OC(=O)O[C@@]21C [Example 8, 2'-acetyl-N-methyl-11-aza-10-deoxo-10-dihydro erythromycin A 13,14-cyclic carbonate]	0.05 (≈ 0.0612 µM)	0.5 (≈ 0.612 µM)	0.1 (≈ 0.122 µM)	0.1 (≈ 0.122 µM)	0.05 (≈ 0.0612 µM)	0.1 (≈ 0.122 µM)	0.1 (≈ 0.122 µM)								

From patent US4517359A, “11-Methyl-11-aza-4-0-cladinosyl-6-0-desosaminyl-15-ethyl-7,1 3,14-trihydroxy-3,5,7,9,12,14-hexamethyl-oxacyclopentadecane-2-one and derivatives thereof” (Sour Pliva farmaceutska, kemijska prehrambena i kozmeticka …, priority 1981, dated 1985)
